According to paper PMC7961048, “Hierarchized phosphotarget binding by the seven human 14-3-3 isoforms” (Nature Communications, 2021):
Read-outs that look alike come from different tables or passages of the source. Starred links: 1 amine or outer side, 2 acyl side, 3 side chain; linkers in the order of their positions; H or OH if unused. Non-standard residues stand in square brackets, D forms with d. Residues, ends and D or L forms follow the SMILES beside them. *: point of attachment. X1 = O=C(CCCC[C@@H]1SC[C@@H]2NC(=O)N[C@@H]21)NCCCOCCOCCOCCCN*; pT = C[C@@H](OP(=O)(O)O)[C@H](N)C(=O)O; Suc = O=C(CCC(=O)[*:2])[*:1]

Columns and labels:
Experiment in all cases: biochemical
Format in all cases: binding
14-3-3β = target: T1, 14-3-3β (Homo sapiens, UniProt P31946)
T1 construct: cDNAs encoding other full-length 14-3-3 isoforms β, τ, η, and σ were obtained as codon-optimized; made in house; host or cells: E. coli BL21(DE3)
T1 sequence (P31946 1-246): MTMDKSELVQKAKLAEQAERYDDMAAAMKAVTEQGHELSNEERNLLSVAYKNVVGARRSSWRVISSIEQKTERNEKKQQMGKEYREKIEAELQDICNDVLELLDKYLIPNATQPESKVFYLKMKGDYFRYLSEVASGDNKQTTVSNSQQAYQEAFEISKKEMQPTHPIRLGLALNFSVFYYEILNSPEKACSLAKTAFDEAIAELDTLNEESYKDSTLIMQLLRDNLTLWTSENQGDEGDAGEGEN
Description: (§1) The seven full-length human 14-3-3 isoforms, produced as fusions to a maltose-binding protein (MBP), were analyzed for their interaction with four phospho-PBMs from E6 proteins of HPV types 16, 18, 33, and 35 belonging to subgroups 1 and 2 (as defined in Supplementary Fig. 1). For comparison, we also measured two non-viral phospho-PBMs originating from protein kinase RSK1[28]. We used a competitive fluorescence polarization (FP) assay that measures the displacement of a fluorescent tracer phosphopeptide (here, derived from the HSPB6 protein) bound beforehand to 14-3-3, by an increasing amount of the peptide of interest.
(§2) For affinity measurements, full-length human 14-3-3 constructs with an N-terminal MBP fusion were used. Plasmids containing the cDNAs of the full-length 14-3-3 isoforms ε, γ, and ζ were received from Prof. Lawrence Banks. cDNAs encoding other full-length 14-3-3 isoforms β, τ, η, and σ were obtained as codon-optimized for E. coli expression synthetic genes from IDT Technologies (Coralville, Iowa, USA). All 14-3-3 isoforms were fused via a three-alanine linker to the C terminus of a mutant MBP carrying the following amino acid substitutions facilitating crystallization: D83A, K84A, K240A, E360A, K363A, and D364A[62]. All resulting clones were verified by sequencing. The MBP-fused proteins were expressed in E. coli BL21(DE3) with IPTG induction. Proteins were affinity purified on an amylose column and were further purified by ion-exchange chromatography (HiTrap Q HP, GE Healthcare). Unfused 14-3-3 isoforms devoid of the flexible C-terminal tails (14-3-3βΔC, 14-3-3τΔC 14-3-3εΔC) were expressed using IPTG induction and purified by subtractive IMAC and SEC[40]. Protein concentrations were determined by UV spectroscopy. The samples were supplemented with glycerol and TCEP before aliquoting and freezing in liquid nitrogen.
(§3) Unless otherwise stated, all phosphopeptide-binding measurements were performed using full-length 14-3-3 proteins fused to the C terminus of MBP, favoring optimal solubility and a standardized parallel purification scheme.
(§4) FP was measured with a PHERAstar (BMG Labtech, Offenburg, Germany) microplate reader by using 485 ± 20 and 528 ± 20 nm band-pass filters (for excitation and emission, respectively). In direct FP measurements, a dilution series of the 14-3-3 protein was prepared in 96-well plates (96-well skirted PCR plate, 4ti-0740, 4titude, Wotton, UK) in a 20 mM HEPES pH 7.5 buffer containing 150 mM NaCl, 0.5 mM TCEP, 0.01% Tween 20, 50 nM fluorescently labeled fpB6 peptide, and 100 μM FSC, if indicated. The volume of the dilution series was 40 μl, which was later divided into three technical replicates of 10 μl upon transferring to 384-well micro-plates (low binding microplate, 384 well, E18063G5, Greiner Bio-One, Kremsmünster, Austria). In total, polarization of the probe was measured at eight different protein concentrations (whereas one contained no protein and corresponded to the free peptide). In competitive FP measurements, the same buffer was supplemented with the protein to achieve a complex formation of 60–80%, based on the direct titration. Then, this mixture was used for creating a dilution series of the unlabeled competitor (i.e., the studied peptides) and the measurement was carried out identically as in the direct experiment.
(§5) All FP experiments were done in triplicates. Analysis of FP experiments were carried out using ProFit, an in-house developed, Python-based fitting program. ProFit utilizes a Monte Carlo approach to take into account experimental variability. It generates hundreds of simulated datasets, based on the experimental data variance and fits direct and competitive measurements in pairs.

14-3-3γ = target: T2, 14-3-3γ (Homo sapiens, UniProt P61981)
T2 construct: full-length human 14-3-3 constructs with an N-terminal MBP fusion were used; made in house; host or cells: E. coli BL21(DE3)
T2 sequence (P61981 1-247): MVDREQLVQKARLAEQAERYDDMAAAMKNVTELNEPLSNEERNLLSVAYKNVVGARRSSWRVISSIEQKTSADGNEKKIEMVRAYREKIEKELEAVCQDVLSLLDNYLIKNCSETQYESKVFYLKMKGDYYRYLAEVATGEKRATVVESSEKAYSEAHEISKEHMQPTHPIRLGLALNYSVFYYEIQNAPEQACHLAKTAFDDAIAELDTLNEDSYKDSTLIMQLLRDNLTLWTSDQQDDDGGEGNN
Description: as §1, §2, §3, §4, §5

14-3-3σ = target: T3, 14-3-3σ (Homo sapiens, UniProt P31947)
T3 construct: cDNAs encoding other full-length 14-3-3 isoforms β, τ, η, and σ were obtained as codon-optimized; made in house; host or cells: E. coli BL21(DE3)
T3 sequence (P31947 1-248): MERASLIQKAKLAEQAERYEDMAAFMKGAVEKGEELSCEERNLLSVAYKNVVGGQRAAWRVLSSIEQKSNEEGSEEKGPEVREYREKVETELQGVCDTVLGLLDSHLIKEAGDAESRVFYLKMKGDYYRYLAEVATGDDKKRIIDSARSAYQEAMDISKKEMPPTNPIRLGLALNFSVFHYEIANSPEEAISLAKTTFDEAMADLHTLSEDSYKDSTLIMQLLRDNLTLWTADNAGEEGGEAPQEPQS
Description: as §1, §2, §3, §4, §5

14-3-3τ = target: T4, 14-3-3τ (Homo sapiens, UniProt P27348)
T4 construct: cDNAs encoding other full-length 14-3-3 isoforms β, τ, η, and σ were obtained as codon-optimized; made in house; host or cells: E. coli BL21(DE3)
T4 sequence (P27348 1-245): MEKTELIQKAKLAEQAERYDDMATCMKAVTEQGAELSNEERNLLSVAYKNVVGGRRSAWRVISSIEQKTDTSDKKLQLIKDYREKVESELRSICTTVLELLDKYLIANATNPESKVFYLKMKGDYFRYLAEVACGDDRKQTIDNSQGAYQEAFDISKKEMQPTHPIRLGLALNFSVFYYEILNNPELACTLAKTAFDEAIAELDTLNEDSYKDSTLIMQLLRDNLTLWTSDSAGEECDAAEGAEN
Description: as §1, §2, §3, §4, §5

[1] = Figure 4 panel a, unit from the colour scale line, motifs measured in this work

SMILES	Kd (14-3-3β)	Kd (14-3-3γ)	Kd (14-3-3σ)	Kd (14-3-3τ)	Binding affinities (KD) of various 14-3-3-binding motifs, 14-3-3σ (14-3-3σ; [1])	Binding affinities (KD) of various 14-3-3-binding motifs, 14-3-3τ (14-3-3τ; [1])	Binding affinities (KD) of various 14-3-3-binding motifs, 14-3-3β (14-3-3β)	Kd (14-3-3γ; KD (μM) ± std 14-3-3γ)	Binding affinities (KD) of various 14-3-3-binding motifs, 14-3-3σ (14-3-3σ)	Kd (14-3-3γ; Binding affinities (KD) of various 14-3-3-binding motifs, 14-3-3γ)
CC(C)[C@H](NC(=O)[C@H](C)NC(=O)[C@@H](NC(=O)[C@H](CCC(=O)O)NC(=O)[C@H](CCCNC(=N)N)NC(=O)[C@H](CCCNC(=N)N)NC(=O)[C@@H](NC(=O)[C@@H]1CCCN1C(=O)[C@H](CCCCN)NC(=O)[C@H](CO)NC(=O)CCC(=O)NCCCOCCOCCOCCCNC(=O)CCCC[C@@H]1SC[C@@H]2NC(=O)N[C@@H]21)[C@@H](C)O)[C@@H](C)OP(=O)(O)O)C(=O)O [pHPV35E6E-1A] ({X1-Suc}-SKPTRRE[pT]AV-OH)	20.2 µM	9.31 µM	44.1 µM	21.5 µM						
CC(C)C[C@H](NC(=O)[C@H](CCCNC(=N)N)NC(=O)CCC(=O)NCCCOCCOCCOCCCNC(=O)CCCC[C@@H]1SC[C@@H]2NC(=O)N[C@@H]21)C(=O)N[C@@H](CCC(N)=O)C(=O)N[C@@H](CCCNC(=N)N)C(=O)N[C@@H](CCCNC(=N)N)C(=O)N[C@@H](CCCNC(=N)N)C(=O)N[C@@H](CCC(=O)O)C(=O)N[C@H](C(=O)N[C@@H](CCC(N)=O)C(=O)N[C@H](C(=O)O)C(C)C)[C@@H](C)OP(=O)(O)O [pHPV18E6]	42.2 ± 6.3 µM	11.1 ± 0.6 µM	139 ± 24 µM	37.8 ± 6 µM						
CC(C)C[C@H](NC(=O)[C@H](CCC(N)=O)NC(=O)[C@@H](NC(=O)[C@H](CCC(=O)O)NC(=O)[C@H](CCCNC(=N)N)NC(=O)[C@H](CCCNC(=N)N)NC(=O)[C@@H](NC(=O)[C@H](CCCNC(=N)N)NC(=O)[C@H](CO)NC(=O)[C@H](CO)NC(=O)CCC(=O)NCCCOCCOCCOCCCNC(=O)CCCC[C@@H]1SC[C@@H]2NC(=O)N[C@@H]21)[C@@H](C)O)[C@@H](C)OP(=O)(O)O)C(=O)O [pHPV16E6]	159 ± 45 µM	37.2 ± 3 µM	> 300 µM	144 ± 28 µM	√	144 µM				
CC(C)[C@H](NC(=O)[C@H](CCC(=O)O)NC(=O)[C@@H](NC(=O)[C@H](CCC(=O)O)NC(=O)[C@H](CCCNC(=N)N)NC(=O)[C@H](CCCNC(=N)N)NC(=O)[C@H](CCCNC(=N)N)NC(=O)[C@@H]1CCCN1C(=O)[C@H](CCCCN)NC(=O)[C@H](CO)NC(=O)CCC(=O)NCCCOCCOCCOCCCNC(=O)CCCC[C@@H]1SC[C@@H]2NC(=O)N[C@@H]21)[C@@H](C)OP(=O)(O)O)C(=O)O [pHPV35E6T-6R] ({X1-Suc}-SKPRRRE[pT]EV-OH)	179 ± 29 µM	71.2 ± 6.7 µM	> 300 µM	194 ± 37 µM	√					
CC(C)[C@H](NC(=O)[C@H](CCC(=O)O)NC(=O)[C@@H](NC(=O)[C@H](CCC(=O)O)NC(=O)[C@H](CCCNC(=N)N)NC(=O)[C@H](CCCNC(=N)N)NC(=O)[C@@H](NC(=O)[C@@H]1CCCN1C(=O)[C@H](CCCCN)NC(=O)[C@H](CO)NC(=O)CCC(=O)NCCCOCCOCCOCCCNC(=O)CCCC[C@@H]1SC[C@@H]2NC(=O)N[C@@H]21)[C@@H](C)O)[C@@H](C)OP(=O)(O)O)C(=O)O [pHPV35E6] ({X1-Suc}-SKPTRRE[pT]EV-OH)	> 300 µM		> 300 µM	233 ± 14 µM			√	125 ± 6 µM	√	
CC(C)C[C@H](NC(=O)[C@H](C)NC(=O)[C@@H](NC(=O)[C@H](CCC(=O)O)NC(=O)[C@H](CCCNC(=N)N)NC(=O)[C@H](CCCNC(=N)N)NC(=O)[C@H](CCCNC(=N)N)NC(=O)[C@H](CO)NC(=O)[C@H](CCCNC(=N)N)NC(=O)[C@H](CO)NC(=O)CCC(=O)NCCCOCCOCCOCCCNC(=O)CCCC[C@@H]1SC[C@@H]2NC(=O)N[C@@H]21)[C@@H](C)OP(=O)(O)O)C(=O)O [pHPV33E6] ({X1-Suc}-SRSRRRE[pT]AL-OH)	4.05 µM		6.77 µM	3.52 µM				< 1 µM		0.94 µM
